According to patent publication US20250059499A1, “CELL-SURFACE ENGINEERING COMPOSITIONS AND METHODS FOR THE PREVENTION OF IMMUNE REJECTION” (THE UNIVERSITY OF BRITISH COLUMBIA, priority 2021, published 2025):
“Also recorded” adds a separate entry of the source. LPG = linear polyglycerol, Mn 14,900 Da

Experiments:
[1] = tested on: cell-surface ICAM-1; assay: ICAM-1 labelling by flow cytometry (immunocamouflage); format: cell-based, human; conditions: TNF-α activated Ea.hy926, 0.2-3.0 mM polymer, UW, 4° C.
Description: For ICAM-1 labelling, Ea.hy926 cells were activated with TNF-α (2000 U/mL, 3 hours)^9 in serum deficient DMEM to stimulate the expression of ICAM-1 on the cell surface before polymer attachment. To account for differences in reactivity between Q-tagged polymers, concentrations of polymer added to the solution were adjusted using NH3 generation data to ensure that a similar number of polymers attached to the cell surface. Following polymer attachment, the cells were fixed, and labelled with PE-Cy™5 Mouse Anti-Human CD54 (1:20, BD Biosciences™) for 20 minutes at room temp in the dark. The cell monolayers were trypsinized and subjected to flow cytometry (CytoFLEX™, Beckman Coulter™) in which 10,000 events were acquired and the median fluorescent intensity in the 667 channel was recorded

[2] = tested on: Ea.hy926 cells; assay: Polymer attachment to endothelial cell surface by flow cytometry (BODIPY FL-labelled polymer); format: cell-based
Description: Ea.hy 926 cells at […] confluence were trypsinized and plated in a 96 well plate at 15,000 cells/well. Cells reached 100% confluence at day 3 and allowed to grow for a further 4 days at 37° C. and 5% CO2. Cells were washed twice with cold DPBS and incubated with UW solution freshly supplemented with 3 mM GSH, 5 mM CaCl2, 0.2 […] and 0.5 mM LPG-Q or 0.56 mM glycopolymers ([…]) unless otherwise noted. The solutions were mixed thoroughly and incubated at 4° C. for 30 minutes under static conditions. The cell supernatant was collected and the cells were washed three times with PBS and subjected to further analysis. The assessment of polymer attachment to endothelial cells are assessed by ammonia assay, flow cytometry and polymer mediated cell-surface camouflage of surface proteins. […] To quantify the extent of cell surface engineering, polymers were attached to endothelial surfaces according to the general cell surface engineering procedures outlined in previously using polymer in which 10% were labelled with BODIPY FLTM (ratio of non-labeled polymer: BODIPY labeled polymer=9:1). The cell monolayers were trypsinized and subjected to flow cytometry (CytoFLEXTM, Beckman CoulterTM) in which 10,000 events were acquired and the median fluorescent intensity (MFI) in the 488 channel was recorded.

[3] = tested on: TNF-α activated Ea.hy926 cells co-cultured with IL-2 activated PBMCs; assay: PBMC-mediated cytotoxicity (LDH assay)
Description: EA.hy 926 monolayers were activated using TNF-α and PBMCs were activated using IL-2 as described in PBMC adhesion experiments. Following activation, PBMC was collected and resuspended in DMEM (Phenol free, 5% FBS, pen/strep). PBMCs were then added to activated EA.hy 926 monolayers (modified and unmodified) to a final concentration of 0.15×10^6 cells/mL and left to incubate at 37° C. and 5% CO2 for 18 hour. After treatment, the supernatant was collected and cell debris was removed through centrifugation. LDH content was measured using LDC cytotoxicity assay (Biovision Inc.™). Cytotoxicity was calculated using the equation below;
where, LDHsample is the amount of LDH released from the sample, LDHPBMC is the amount of LDH released from PBMC samples not subjected to EA.hy 926 monolayers, LDHalive is the amount of LDH released from EA.hy 926 monolayers not subjected to PBMCs, and LDHdead is the amount of LDH released of EA.hy926 monolayers treated with RIPA buffer for 10 minutes at room temperature.

## linear polyglycerol glutamine (Ac-GQQQLGGGGG-{LPG}; not fully specified; also: part of the polymer BODIPY FL-labelled in some experiments) [LPG-Q]
[1]
  detection of ICAM-1 on the surface of endothelial cells: camouflages pro-inflammatory ICAM-1 receptors in a dose-dependent manner; also recorded: reduced the detection of ICAM-1
[2]; 0.2 mM-3.0 mM, 4° C., 30 minutes, UW solution with gtTGase
  LPG-Q attachment versus concentration: dose-dependent increase
[2]; 30 min at 4° C. in UW solution with gtTGase, versus LPG-SS
  levels of cell-surface labelling, enzyme-mediated approach compared to succinimidyl succinate amine coupling: ~4.4 fold
[3]
  immunosuppression on the cell surface compared with polymer in solution: more potent immunosuppression than LPG-Q-Sia3Lac in solution
[3]; polymer ligated to cell surface
  PBMC-mediated endothelial cell death, in words: suppress PBMC-mediated endothelial cell death
